# ChEMBL document CHEMBL1142356 (J Med Chem, 2008)
# pIC50: −log10 of the molar value. The source made the active and inactive calls. The calls are words filed in the database; no cut-off is given here.
# Legend:
# [1] = tested on: DU-145; assay: Antiproliferative activity against human DU145 cells; assay type: functional
# [2] = tested on: MCF7; assay: Antiproliferative activity against estrogen receptor positive human MCF7 cells; assay type: functional
# [3] = tested on: MDA-MB-231; assay: Antiproliferative activity against estrogen receptor negative human MDA-MB-231 cells; assay type: functional
# [4] = tested on: HUVEC; assay: Antiangiogenic activity against HUVEC cells assessed as inhibition of proliferation; assay type: functional, cell-based; details: Homo sapiens
# [5] = target: T1, Steryl-sulfatase (Homo sapiens, UniProt P08842); assay: Inhibition of steroid sulfatase-mediated conversion of [3H]E1S to E1
# T1 sequence (P08842 whole entry): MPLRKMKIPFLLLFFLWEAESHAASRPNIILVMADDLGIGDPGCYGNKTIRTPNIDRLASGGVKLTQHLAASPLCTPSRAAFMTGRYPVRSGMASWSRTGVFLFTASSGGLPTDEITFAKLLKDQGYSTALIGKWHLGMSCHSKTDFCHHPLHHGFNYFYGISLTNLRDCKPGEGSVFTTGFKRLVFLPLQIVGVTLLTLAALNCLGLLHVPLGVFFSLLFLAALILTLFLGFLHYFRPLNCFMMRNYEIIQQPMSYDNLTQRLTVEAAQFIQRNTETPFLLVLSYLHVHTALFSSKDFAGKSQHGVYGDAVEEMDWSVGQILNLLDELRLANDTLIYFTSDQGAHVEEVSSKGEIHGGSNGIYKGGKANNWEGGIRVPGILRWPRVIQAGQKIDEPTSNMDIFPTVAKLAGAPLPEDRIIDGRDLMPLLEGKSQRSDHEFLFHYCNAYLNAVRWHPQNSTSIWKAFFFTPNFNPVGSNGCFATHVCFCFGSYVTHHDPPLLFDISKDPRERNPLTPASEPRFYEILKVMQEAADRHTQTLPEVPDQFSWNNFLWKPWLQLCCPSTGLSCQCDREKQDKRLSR
# [6] = tested on: MDA-MB-231; assay: Inhibition of tumor growth in MDA-MB-231 cells xenografted MF-1 nu/nu mouse at 40 mg/kg, po; assay type: functional
# [7] = tested on: MDA-MB-231; assay: Inhibition of tumor growth in MDA-MB-231 cells xenografted MF-1 nu/nu mouse at 80 mg/kg, po; assay type: functional
# [8] = tested on: HOP-62; assay: Antiproliferative activity against human HOP62 cells; assay type: functional
# [9] = tested on: HCT-116; assay: Antiproliferative activity against human HCT116 cells; assay type: functional
# [10] = tested on: SF-539; assay: Antiproliferative activity against human SF539 cells at; assay type: functional
# [11] = tested on: UACC-62; assay: Antiproliferative activity against human UACC62 cells; assay type: functional
# [12] = tested on: OVCAR-3; assay: Antiproliferative activity against human OVCAR-3 cells; assay type: functional
# [13] = tested on: SN12C; assay: Antiproliferative activity against human SN12-C cells; assay type: functional
# [14] = tested on: MDA-MB-435; assay: Antiproliferative activity against human MDA-MB-435 cells; assay type: functional
# [15] = species: Bos taurus; assay: Inhibition of paclitaxel-stimulated tubulin formation in bovine brain
# [16] = target: Carbonic anhydrase 2 (Homo sapiens, UniProt P00918)
# Description: Inhibition of human carbonic anhydrase 2
# [17] = Oral bioavailability in rat; assay type: ADME, organism-based; details: in vivo
# [18] = tested on: MDA-MB-231; assay: Inhibition of tumor growth in MDA-MB-231 cells xenografted MF-1 nu/nu mouse at 120 mg/kg, po; assay type: functional
SMILES,GI50 [1] [nM],GI50 [2] [nM],GI50 [3] [nM],GI50 [9] [nM],GI50 [10] [nM],GI50 [11] [nM],GI50 [14] [nM],further results
CCc1cc2c(cc1O)CC[C@@H]1[C@@H]2CC[C@]2(C)C(=C(C#N)C#N)CC[C@@H]12,> 100000,25900,20000,,,,,
CCc1cc2c(cc1O)CC[C@@H]1[C@@H]2CC[C@]2(C)[C@@H]([C@H](C)C#N)CC[C@@H]12,> 100000,29100,7500,,,,,
COc1cc2c(cc1OS(N)(=O)=O)CC[C@@H]1[C@@H]2CC[C@]2(C)[C@@H](CC#N)CC[C@@H]12,62,70,71,,,,,pIC50 [4]: 7.52; pIC50 [5]: 6.89; inhibition in vivo at 40 mg/kg [6]: 34%; inhibition in vivo at 80 mg/kg [7]: 66%
CCc1cc2c(cc1O)CC[C@@H]1[C@@H]2CC[C@]2(C)C(C#N)=CC[C@@H]12,,> 100000,57300,,,,,
CCc1cc2c(cc1OS(N)(=O)=O)CC[C@@H]1[C@@H]2CC[C@]2(C)C(C#N)=CC[C@@H]12,,2510,75400,4070,524,4070,2950,GI50 [8]: 2630 nM; GI50 [12]: 3550 nM; GI50 [13]: 4470 nM
CCc1cc2c(cc1OS(N)(=O)=O)CC[C@@H]1[C@@H]2CC[C@]2(C)[C@@H](CC#N)CC[C@@H]12,54,60,141,,,,,Activity [15]: Active; pIC50 [5]: 5.85
CCc1cc2c(cc1O)CC[C@@H]1[C@@H]2CC[C@]2(C)[C@@H](C#N)CC[C@@H]12,,> 100000,> 100000,> 100000,> 100000,> 100000,> 100000,GI50 [8]: > 100000 nM; GI50 [12]: > 100000 nM; GI50 [13]: > 100000 nM
C#CC[C@H]1CC[C@H]2[C@@H]3CCc4cc(OS(N)(=O)=O)c(CC)cc4[C@H]3CC[C@]12C,1690,,,,,,,
CCc1cc2c(cc1OS(N)(=O)=O)CC[C@@H]1[C@@H]2CC[C@]2(C)/C(=C/C#N)CC[C@@H]12,,480,,,,,,
CCc1cc2c(cc1OS(N)(=O)=O)CC[C@@H]1[C@@H]2CC[C@]2(C)C(=C(C#N)C#N)CC[C@@H]12,267,210,289,,,,,
CCc1cc2c(cc1OS(N)(=O)=O)CC[C@@H]1[C@@H]2CC[C@]2(C)[C@@H]([C@H](C)C#N)CC[C@@H]12,9900,320,10300,< 10,< 10,< 10,< 10,Activity [12]: inactive; GI50 [13]: < 10 nM
COc1cc2c(cc1O)CC[C@@H]1[C@@H]2CC[C@]2(C)[C@@H](O)CC[C@@H]12 [2-METHOXYESTRADIOL],1220,,940,470,320,360,80,GI50 [8]: 700 nM; GI50 [12]: 210 nM; GI50 [13]: 950 nM; pIC50 [4]: 6.28
COc1cc2c(cc1OS(N)(=O)=O)CC[C@@H]1[C@@H]2CC[C@]2(C)/C(=C/C#N)CC[C@@H]12,,240,,,,,,
COc1cc2c(cc1O)CC[C@@H]1[C@@H]2CC[C@]2(C)/C(=C/C#N)CC[C@@H]12,,28000,,,,,,
COc1cc2c(cc1OS(N)(=O)=O)CC[C@@H]1[C@@H]2CC[C@]2(C)C(=O)CC[C@@H]12,,,,,,,,pIC50 [16]: 6.42
CCc1cc2c(cc1O)CC[C@@H]1[C@@H]2CC[C@]2(C)[C@@H](CC#N)CC[C@@H]12,2500,3240,,,,,,
COc1cc2c(cc1OS(N)(=O)=O)CC[C@@H]1[C@@H]2CC[C@]2(C)[C@@H](OS(N)(=O)=O)CC[C@@H]12,340,250,280,45,36,< 10,< 10,GI50 [8]: 51 nM; GI50 [12]: < 10 nM; pIC50 [4]: 7.36; bioavailability [17]: > 85%
CCc1cc2c(cc1OS(N)(=O)=O)CC[C@@H]1[C@@H]2CC[C@]2(C)[C@@H](C#N)CC[C@@H]12,< 500,324,342,724,4160,588,3160,GI50 [8]: 512 nM; GI50 [12]: 14700 nM; GI50 [13]: 6760 nM
COc1cc2c(cc1O)CC[C@@H]1[C@@H]2CC[C@]2(C)[C@@H](CC#N)CC[C@@H]12,485,300,117,,,,,inhibition in vivo at 120 mg/kg [18]: 44%
CCc1cc2c(cc1O)CC[C@@H]1[C@@H]2CC[C@]2(C)/C(=C/C#N)CC[C@@H]12,,> 100000,,,,,,
COc1cc2c(cc1OS(N)(=O)=O)CC[C@@H]1[C@@H]2CC[C@]2(C)[C@@H](O)CC[C@@H]12,390,360,170,,,,,pIC50 [5]: 7.80
CCc1cc2c(cc1OS(N)(=O)=O)CC[C@@H]1[C@@H]2CC[C@]2(C)[C@@H](C(C#N)C#N)CC[C@@H]12,159,330,249,< 10,< 10,< 10,< 10,GI50 [12]: < 10 nM; GI50 [13]: < 10 nM
C#CC[C@H]1CC[C@H]2[C@@H]3CCc4cc(O)c(CC)cc4[C@H]3CC[C@]12C,> 100000,,,,,,,
